Here are results for five molecules from US10787448B2, “Indolizino [3,2-C] quinoline-based fluorescent probe” (SEOUL NATIONAL UNIVERSITY R & DB FOUNDATION, priority 2015, dated 2020).

For data set [1] the following is noted: in water; cited from earlier work.
Data set [2] in a line: Analysis of optical characteristics (absorption, fluorescence emission, quantum yield) in solvents. The format is physicochemical. A digest of the protocol: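 Optical properties of indolizinoquinoline compounds were examined in solvents. A 10 mM DMSO stock was diluted into the solvent, and fluorescence emission spectra were recorded at 20° C. on a JASCO FP-6500 spectrofluorometer. Absorption spectra were taken at room temperature on a Perkin Elmer Lamda 20 UV/VIS spectrometer. Fluorescence quantum yield (Φ) was determined.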

Data set [3] concerns the target T1, PDEδ (Homo sapiens, UniProt O43924).
T1 construct: made in house; host or cells: E. coli
Nature of the data set: Confirmation of target protein using FRET. Type of data set: binding. Particulars: irradiated with 280-nm light. As to the method:
Therefore, to confirm whether the fluorescent material is able to selectively bind to a specific protein in a cell, fluorescence of the recombinant PDE and/or indolizino[3,2-c]quinoline compound, which is overexpressed in E. coli cells, followed by isolation and purification, was measured by being irradiated with 280-nm light.

For data set [4], the system named is HeLa cells. Nature of the data set: Cell permeability: fluorescence imaging and live cell confocal imaging. The note with it: HeLa cells. Type of data set: cell-based.
Data set [5] concerns cells. Nature of the data set: Co-staining / co-localization with DAPI, MitoTracker or LysoTracker. The format is cell-based.
The test system of data set [6] is cells. Nature of the data set: Comparison of fluorescence stability with conventionally developed dyes. The format is cell-based.
The subject of data set [7] is DNA oligomers (48 bp) tetO sequences. Nature of the data set: Binding to DNA by fluorescence spectrophotometer. Particulars: hybridized tetO DNA oligomers added, 1 minute incubation. As to the method:
Using a fluorescence spectrophotometer, it was confirmed whether the indolizino[3,2-c]quinoline compound of the present invention binds to DNA. First, DNA oligomers (48 bp) used in the experiment are tetO sequences, and the base sequences thereof are as follows.
The same molarities of oligomers were mixed while being heated at 95° C. for 5 minutes and cooled to room temperature for 2 hours to hybridize, the fluorescence of each of the indolizino[3,2-c]quinoline compounds of the present invention was measured, a corresponding equivalent of DNA oligomer was added to a cuvette, and then incubated while blocking light for 1 minute to measure fluorescence again.

For data set [8], the target named is T1, PDEδ. Briefly: Titration using fluorescence polarization. The format is binding. The note with it: 0.5 μM compound, PDEδ protein from 0 to 32 μM. As to the method: To confirm whether the indolizino[3,2-c]quinoline compound can bind to a specific intracellular protein, in the presence of 0.5 μM of the indolizino[3,2-c]quinoline compound, titration was performed by increasing the concentration of the PDEδ protein from 0 to 32 μM to measure a polarization degree.

The target of data set [9] is T1, PDEδ. Briefly: Titration using fluorescence polarization. Type of data set: binding. Particulars: Table 9.

pKd: −log10 of the molar value. “Also recorded” adds a separate entry of the source. Read-outs that look alike come from different tables or passages of the source.

T1 sequence (O43924 whole entry): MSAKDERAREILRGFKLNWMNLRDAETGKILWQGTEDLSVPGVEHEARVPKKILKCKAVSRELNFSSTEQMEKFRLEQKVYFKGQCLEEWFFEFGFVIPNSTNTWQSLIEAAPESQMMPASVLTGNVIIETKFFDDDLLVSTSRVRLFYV

As for `O=c1cc(C(F)(F)F)c2cc3c4c(c2o1)CCCN4CCC3` [Coumarin 153], the “quantum yield of the standard (Φ)” value in data set [1] is 0.12.
Take `O=[N+]([O-])c1ccc(-c2nc3ccccc3c3cc4ccccn4c23)cc1` [IQ 2, 6-(4-nitrophenyl)indolizino[3,2-c]quinoline]: the “fluorescence (intensity, in words)” value in [2] is given as “did not induce fluorescence”. Further, the “fluorescence change / binding to PDEδ by FRET” value in data set [3] is “low fluorescence intensity”.
On to `Cc1cccn2c1cc1c3ccccc3nc(-c3ccc([N+](=O)[O-])cc3)c12` [IQ 13, 11-methyl-6-(4-nitrophenyl)indolizino[3,2-c]quinoline], for which the “fluorescence (intensity, in words)” value in data set [2] was “did not induce fluorescence”. In data set [3], the “fluorescence change / binding to PDEδ by FRET” value is “no change in fluorescence”.
In the case of `CN(C)c1ccc(-c2nc3ccccc3c3cc4ccccn4c23)cc1` [IQ 36, 4-(indolizino[3,2-c]quinolin-6-yl)-N,N-dimethylaniline], the intracellular molecule recognized entry in data set [4] was “recognized intracellular RNA”. The “intracellular organelles in which fluorescence is detected” value in data set [4] was “intensively distributed in cytoplasmic and nucleolus areas”. The “staining pattern compared with conventional dyes” value in data set [5] is on record as “an aspect similar to RNA select for staining RNA; also recorded: stains RNA in a pattern similar to the now currently available Sytoselect”; in data set [5] (listed as Formula 12) it was “works as a complementary stain with respect to DAPI”. For the same molecule, the “fluorescence stability compared with commercially available dyes” value in data set [6] was “superior stability, compared to Sytoselect”.
A word on the pKd: it is the Kd on a negative log10 scale, so that one unit is a factor of ten. Read a low pKd as a large Kd. On to `c1ccc2cc(-c3nc4ccccc4c4cc5ccccn5c34)ccc2c1` [compound 10], for which the “quantum yield (Φ)” value in data set [2] (DW, standard Rhodamine 6G) is 0.015. In addition, the “quantum yield (Φ)” value in data set [2] (EtOH, standard Coumarin 153) was 0.350. Also, the “Fluorescence Emission Intensity” value in data set [2] (H2O at 2 μM) was 39.6. Besides, the “Peak emission wavelength λmax em(nm)” value in [2] (H2O at 2 μM, excited at the longest absorption maxima) worked out at 532 nm. Moreover, in data set [2] (normalized fluorescence intensity, H2O at 2 μM), the “Relative fluorescence Emission Intensitynorm” value is on record as 0.17. In addition, in data set [7], the “change in fluorescence intensity on addition of DNA oligomer” value is “Increase in fluorescence intensity”. Also, the pKd in [8] is 6.19. Moreover, in data set [9], the “kmax em(nm)” value came to 530 nm and the “λabs(nm)” value is given as 430 nm.
